The term IC50 denotes the point on the concentration scale where inhibition reaches its midpoint. Low values mean inhibition by little substance, high ones a need for much substance.

Our source for the IC50 values is patent publication US20200087258A1, “INHIBITOR OF CITRATE TRANSPORTER AND THEIR USE IN THERAPY” (Eternygen GmbH, priority 2017, published 2020).

Assay [1] concerns the target T1, GLT-1 (Homo sapiens, UniProt P43004).
T1 construct: host or cells: HEK293 (virus made in GP293 packaging cells)
Kind of assay: 3H-glutamate uptake counter assay in HEK293 cells overexpressing human GLT-1. In kind it is cell-based. As to the method: The compound was obtained by screening of a library containing more than 50,000 lead-like compounds and fragments. The library was tested using a functional citrate uptake assay with HEK293 cells overexpressing recombinant human INDY. The following hit confirmation was conducted in the same assay system. To confirm the activity of selected compounds on the target INDY another cell assay was conducted. In this assay system citrate uptake was measured using HepG2 cells which endogenously express INDY. Furthermore selectivity of selected compounds was tested for two other transporters in different assay systems. The first transporter was the glutamate transporter GLT-1 tested in a glutamate uptake assays using HEK293 cells overexpressing recombinant human GLT-1. The second transporter was the glucose transporter GLUT1 tested in a glucose uptake assay using Huh-7 cells which endogenously express GLUT1. Compounds were considered to be selective with an at least 5-fold higher activity for INDY than for the other two transporters.
Cells were maintained in cell medium using cell culture grade flasks (CellSTACK Corning, 500 cm2 dishes or T175 depending on cell number). The selection antibiotic and G418 (800 μg/ml) was added during cultivation but not for seeding into assay plates. For splitting, cells were washed with PBS (w/o Ca2+, Mg2+, phenol red) and detached with Trypsin/EDTA. Throughout cultivation cells were kept sub-confluent. Detached cells (50,000 cells/well) were seeded in 96-well plates (white, clear bottom from Corning #655098) and incubated over night before usage in the assay. The following media were used. For HEK293 cells expressing INDY MEM (PAA)+10% FCS+1×P/S+2 mM L-Gln; for HEK293 cells expressing GLT-1 DMEM (Gibco)+10% FCS+400 µg/ml G418; for Huh7 cells DMEM (Gibco)+10% FCS+2 mM L-Gin (+1×P/S); for HepG2 cells MEM (PAA, Cat # E15-024)+10% FCS+2 mM L-Gin+1×NEAA+1 mM Na-Pyruvat
The following assay buffers for the particular uptake reaction were used. Citrate uptake buffer: 120 mM NaCl, 5.4 mM KCl, 0.8 mM MgSO4, 5 mM glucose, 1.8 mM CaCl2, 25 mM Hepes, 25 mM MES, pH 6.5. Glutamate uptake buffer: HBSS, 1 mM CaCl2, 1 mM MgCl2, 20 mM Hepes pH 7.4. Glucose uptake buffer: 25 mM Hepes+25 mM MES pH 7.4, 120 mM NaCl, 5.4 mM KCl, 1.8 mM CaCl2, 0.8 mM MgSO4.
As a counter assay, Glutamate uptake by the GLT-1 transporter was used. The principle of the assay is to measure the uptake of ^3H labelled glutamate into HEK cells, which overexpress human GLT-1.
The generation of a GLT-1 cell line was performed as follows: human GLT11 isoform sv1 cDNA (Origene # RC223924) was cloned into vector pFB-Neo-CMV-hGLT1 using QIAfilter Plasmid Midi Kit (Qiagen). Virus was generated in GP293 packaging cells (transfection of plasmid with Lipofectamine 2000+OptiMEM). For transfection into HEK cells GP293, supernatant containing virus was passed through a 0.45 micron sterile filter and DEAE-dextran was added at […] final concentration. The solution was used to transfect HEK293 cells at 37° C., 8.5% CO2. After 24 h selection marker G418 at 400 μg/ml was added and cultivation medium performed in DMEM 10% FBS.
The assay was performed in a 96-well format using repeated washing steps, cell lysis and addition of scintillation fluid. Assay buffer was HBSS, 1 mM CaCl2, 1 mM MgCl2, […] pH 7.4. Cells were seeded into white clear-bottom 96-well plates (50,000/well) in the presence of Poly-D-Lysine and incubated at 37° C. for 16-24 hours. Subsequently the plates were washed once with assay buffer using automated washing/LS 405 Selectors, BioTek ending with a buffer volume of 40 μl. Then 5 μl of compound solution in assay buffer was added and incubated for 20 min at 37° C. in cell incubator, HERA cell Heraeus. Afterwards 10 μl of substrate 3H-Glu (3 nM) were added and incubated for another 20 min at 37° C. in cell incubator, HERAcell. Then the plates were washed once with 200 μl cold assay buffer and 150 μl scintillation fluid was added. […]

For assay [2], the target named is INDY (Homo sapiens, UniProt Q86YT5). Description: 14C-citrate uptake in HepG2 cells endogenously expressing INDY (NaCT). It is filed as cell-based. As to conditions: endogenous INDY. An outline of the steps:
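HepG2 cells, which express INDY endogenously, were preincubated with compound for 5 min at 37 °C in pH 6.5 Na+ citrate uptake buffer. 14C-citrate ([…]) was then added for 90 min at 37 °C. After washing and NaOH lysis, uptake was measured by scintillation counting, with 5 mM citrate as positive control.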

Chain of INDY (Q86YT5 whole entry): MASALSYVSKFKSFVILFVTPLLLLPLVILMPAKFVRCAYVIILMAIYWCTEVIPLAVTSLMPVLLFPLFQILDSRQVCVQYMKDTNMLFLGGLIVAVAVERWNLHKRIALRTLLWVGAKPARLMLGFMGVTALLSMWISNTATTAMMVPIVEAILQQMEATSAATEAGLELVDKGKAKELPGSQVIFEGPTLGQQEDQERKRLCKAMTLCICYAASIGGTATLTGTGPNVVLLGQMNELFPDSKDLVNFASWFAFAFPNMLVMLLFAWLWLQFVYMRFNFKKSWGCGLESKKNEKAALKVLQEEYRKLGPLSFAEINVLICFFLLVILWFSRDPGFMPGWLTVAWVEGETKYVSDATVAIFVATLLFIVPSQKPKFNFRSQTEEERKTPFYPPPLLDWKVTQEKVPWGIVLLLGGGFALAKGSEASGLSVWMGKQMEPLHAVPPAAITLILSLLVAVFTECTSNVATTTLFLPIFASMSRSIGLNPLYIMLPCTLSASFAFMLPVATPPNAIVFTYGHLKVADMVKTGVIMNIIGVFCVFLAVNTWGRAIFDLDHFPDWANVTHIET
T1 sequence (P43004 whole entry): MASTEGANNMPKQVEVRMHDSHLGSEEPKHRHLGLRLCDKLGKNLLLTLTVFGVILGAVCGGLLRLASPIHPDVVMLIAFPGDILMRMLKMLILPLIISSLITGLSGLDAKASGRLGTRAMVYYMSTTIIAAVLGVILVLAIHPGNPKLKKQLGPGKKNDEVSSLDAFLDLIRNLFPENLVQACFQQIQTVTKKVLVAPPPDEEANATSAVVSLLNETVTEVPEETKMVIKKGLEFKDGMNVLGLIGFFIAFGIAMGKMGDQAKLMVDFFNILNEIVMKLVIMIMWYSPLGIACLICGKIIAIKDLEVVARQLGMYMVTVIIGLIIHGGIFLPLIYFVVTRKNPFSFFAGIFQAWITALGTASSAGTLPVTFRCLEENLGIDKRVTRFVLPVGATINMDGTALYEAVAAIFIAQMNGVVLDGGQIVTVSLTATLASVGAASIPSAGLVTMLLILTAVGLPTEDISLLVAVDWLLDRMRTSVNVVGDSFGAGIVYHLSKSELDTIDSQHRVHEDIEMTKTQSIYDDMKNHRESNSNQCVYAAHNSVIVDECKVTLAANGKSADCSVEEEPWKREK

For `O=C(NCc1ccccc1F)C1CCN(S(=O)(=O)/C=C/c2ccccc2)CC1` [Example 5], the IC50 was over 50 µM in assay [1] and 2 µM in assay [2].
For `CC(C)(C)c1ccc(S(=O)(=O)N2CCC(C(=O)NCc3ccccc3F)CC2)cc1` [Example 12, 1-(4-tert-butylbenzenesulfonyl)-N-[(2-fluorophenyl)methyl]piperidine-4-carboxamide], in that order: over 20 µM and 1 µM.
As for `O=C(NCc1ccccc1F)C1CCN(S(=O)(=O)c2ccc(C(F)(F)F)cc2)CC1` [Example 25, N-[(2-fluorophenyl)methyl]-1-[4-(trifluoromethyl)benzenesulfonyl]piperidine-4-carboxamide], the IC50 in assay [1] was over 20 µM; in assay [2] it was 0.3 µM.
`O=C(NCc1ccccc1F)C1CCN(S(=O)(=O)c2cc(Cl)cc(Cl)c2)CC1` [Example 44, 1-(3,5-dichlorobenzenesulfonyl)-N-[(2-fluorophenyl)methyl]piperidine-4-carboxamide]: the concentration for half-maximal inhibition (IC50) in assay [1] is over 20 µM; in assay [2], 0.1 µM.
Take `COc1ccccc1CNC(=O)C1CN(S(=O)(=O)c2ccc(C(C)(C)C)cc2)C1` [Example 50, 1-(4-tert-butylbenzenesulfonyl)-N-[(2-methoxyphenyl)methyl]azetidine-3-carboxamide]: the results for the IC50 in assay [1] and in assay [2] were over 20 µM and 7 µM, respectively.
`O=C(NCc1ccccn1)C1CCN(S(=O)(=O)c2cc(Cl)cc(Cl)c2)CC1` [Example 55, 1-(3,5-dichlorobenzenesulfonyl)-N-[(pyridin-2-yl)methyl]piperidine-4-carboxamide]: the IC50 in assay [1] was over 20 µM; in assay [2], 0.4 µM.
For `O=C(NCc1ccccn1)C1CCN(S(=O)(=O)c2ccc(C(F)(F)F)cc2)CC1` [Example 57, N-[(pyridin-2-yl)methyl]-1-[4-(trifluoromethyl)benzenesulfonyl]piperidine-4-carboxamide], in that order: over 20 µM and 2.5 µM.
For `O=C(NCc1ccccn1)C1CCN(S(=O)(=O)c2ccc(S(F)(F)(F)(F)F)cc2)CC1` [Example 86, 1-[4-(pentafluoro-lambda6-sulfanyl)benzenesulfonyl]-N-[(pyridin-2-yl)methyl]pipendine-4-carboxamide], in that order: over 20 µM and 0.4 µM.
For `O=C(NCc1ccccc1CO)C1CCN(S(=O)(=O)c2cc(Cl)cc(Cl)c2)CC1` [Example 87, 1-(3,5-dichlorobenzenesulfonyl)-N-{[2-(hydroxymethyl)phenyl]methyl}piperidine-4-carboxamide], in that order: over 20 µM and 0.2 µM.
As to `O=C(NCc1ccccn1)C1CCN(S(=O)(=O)c2cc(Cl)cc(C3CC3)c2)CC1` [Example 101, 1-(3-chloro-5-cyclopropylbenzenesulfonyl)-N-[(pyridin-2-yl)methyl]piperidine-4-carboxamide], the figures for the IC50 in assay [1] and in assay [2] were over 20 µM and 0.1 µM, respectively.
